From patent US7893252B2, “Selectively depolymerized galactomannan polysaccharide” (priority 2003, dated 2011)
Entries after “also recorded” stand apart in the source; their conditions may differ.

Tests used:
[1] = tested on: COLO 205 human colon tumor xenografts; assay: Efficacy and compatibility with leucovorin in COLO 205 human colon tumor xenografts, q4d×4 (Example 4)
Experimental: The principal differences with the study described in Example 3 were that (a) the galactomannan was from another source, of a different size (molecular weight) and with a different Man/Gal ratio, (b) there were four consecutive injections, not three, (c) there were four doses of the galactomannan tested, not one, (d) 5-FU was administered (i.v.) in 48 mg/kg/dose, not 75 mg/kg/dose, as in the first study, and (e) galactomannan (i.v. injection) was compared with leucovorin (oral gavage, administered two hours after 5-FU) in terms of efficacy and toxicity. […] 5-FU alone was administered i.v. on the same q4d×4 treatment schedule at dosages of 48 mg/kg/dose. 5-FU was formulated in saline fresh on each day of treatment at a concentration of 4.8 mg/mL, at pH 9.2. […] Leucovorin powder (clinical formulation, Leucovorin calcium for injection) was reconstituted with water for injection to yield a concentration of 10 mg/mL. On each day of treatment the stock solution was diluted with water for injection to yield a concentration of 2.5 mg/mL.
Two more combination-treatment groups were also included in the study. One group of mice was treated with 5-FU (48 mg/kg/dose, i.v., q4d×4), followed by oral gavage (p.o.) with leucovorin, administered two hours after 5-FU at a dosage of 25 mg/kg/dose. Another two groups of mice were treated with 5-FU in a combination with the galactomannan (48 mg/kg/dose and 120 mg/kg/dose, respectively, i.v., q4d×4), followed by p.o. leucovorin treatment, administered at a dosage of 25 mg/kg/dose two hours after 5-FU plus the galactomannan.
There were a total of nine groups of 10 animals each, s.c.-implanted with COLO 205 human colon tumor xenografts.

[2] = tested on: dogs; assay: Acute toxicology, single IV injection in dogs; assay type: in vivo; details: 5-FU 28.5 mg/kg, galactomannan 15 mg/kg, combination 28.5/15 mg/kg
Experimental: Acute toxicology studies of the galactomannan of the present invention were performed in mice, rats and dogs and subchronic toxicology studies were performed in rats and dogs. The following is a summary of the findings of these studies:
The surviving dogs remained clinically normal and had no treatment-related changes in body weight, feed consumption, ECG tracings, clinical pathology or gross tissue changes during the 21-day study period.

[3] = tested on: rats; assay: Repeat dose I.V. rat study with GMP grade galactomannan (Example 8); assay type: in vivo
Experimental: Studies with repeat dose I.V. in rats with up to 52-day recovery period was performed using filtered GMP grade galactomannan material containing 48 or 96 mg/kg (288 or 576 mg/m2). Five animals of each sex were sacrificed at days 5, 28 and 56.
The galactomannan of the invention has minimal histological effects with only 1/30 rats injected with 48 mg/kg dose of the GMP galactomannan clinical solution having granulomatous inflammation. […] It was concluded that galactomannan clinical solutions, up to a dose of 15 mg/kg (555 mg/m2; 9 mg/mL), is safe for human use and poses no undue risk to health.

[4] = tested on: Salmonella typhimurium strains TA97a, TA98, TA100, TA1535 and Escherichia coli strain WP2 uvrA (pKM101); assay: Ames bacterial reverse mutation assays; assay type: cell-based; details: in the presence and absence of an exogenous metabolic activation system
Experimental: Mutagenicity studies were conducted and included two Ames bacterial reverse mutation assays in which the galactomannan of the invention was evaluated by itself in the first study and combined with 5-FU in the second study. The test articles in both studies were evaluated in bacterial assays using Salmonella typhimurium strains TA97a, TA98, TA100, TA1535 and Escherichia coli strain WP2 uvrA (pKM101), both in the presence and absence of an exogenous metabolic activation system.

[5] = i.v. q4d×4, 5-FU 48 mg/kg/dose, GM 120 mg/kg/dose

With “(((1,4)-linked β-D-mannopyranose)17-((1,6)-linked-β-D-galactopyranose)10)12) [GM]” the “tumor growth delay / tumor regression after 13 days” value ([1]; GM 120 mg/kg/dose alone, q4d×4) was “did not delay growth; also recorded: No tumor regression”, the “median to quadrupling of tumor volume” value [1, 5] was 6.9 days and the “median tumor volume after 13 days” value [1, 5] was 1152 mm3. For the same substance, the death [2] was 0/2, the “rats having granulomatous inflammation” value ([3]; 48 mg/kg dose of GMP galactomannan clinical solution) was 1/30 and the “rats having granulomatous inflammation” value ([3]; 96 mg/kg dose of GMP galactomannan clinical solution) was “None of the 30”. The mutagenic activity ([4]; listed as galactomannan) was “not mutagenic” and the mutagenic activity ([4]; listed as galactomannan of the invention) was “No evidence of mutagenic activity”.
